Laboratory results from article PMC9316761, “Thiosemicarbazide-Substituted Coumarins as Selective Inhibitors of the Tumor Associated Human Carbonic Anhydrases IX and XII” (Molecules, 2022).

Tests used:
[1] = molecular target: T1, hCA I (Homo sapiens, UniProt P00915); experiment: stopped flow CO2 hydrase assay, hCA I; format: biochemical; settings: mean from 3 assays, errors ±5–10%; 6 h preincubation
T1 construct: made in house

[2] = molecular target: T2, hCA II (Homo sapiens, UniProt P00918); experiment: stopped flow CO2 hydrase assay, hCA II; format: biochemical; settings: mean from 3 assays, errors ±5–10%; 6 h preincubation
T2 construct: made in house

[3] = molecular target: T3, hCA IX (Homo sapiens, UniProt Q16790); experiment: stopped flow CO2 hydrase assay, hCA IX; format: biochemical; settings: for Ki: mean from 3 assays, errors ±5–10%, 6 h preincubation; for fold loss of hCA IX inhibition potency relative to 14a: Ki ratio versus 14a; for fold increase of hCA IX Ki relative to the 4-iodo derivative 18a: Ki ratio versus 18a; for fold more potent on hCA IX than 6-substituted counterpart: 7-substituted versus 6-substituted regioisomer (20a, 22a)
T3 construct: made in house

[4] = molecular target: T4, hCA XII (Homo sapiens, UniProt O43570); experiment: stopped flow CO2 hydrase assay, hCA XII; format: biochemical; settings: for fold more effective on hCA XII than 6-substituted counterpart: 7-substituted versus 6-substituted regioisomer (20a, 21a)
T4 construct: made in house
T4 sequence (O43570 25-354): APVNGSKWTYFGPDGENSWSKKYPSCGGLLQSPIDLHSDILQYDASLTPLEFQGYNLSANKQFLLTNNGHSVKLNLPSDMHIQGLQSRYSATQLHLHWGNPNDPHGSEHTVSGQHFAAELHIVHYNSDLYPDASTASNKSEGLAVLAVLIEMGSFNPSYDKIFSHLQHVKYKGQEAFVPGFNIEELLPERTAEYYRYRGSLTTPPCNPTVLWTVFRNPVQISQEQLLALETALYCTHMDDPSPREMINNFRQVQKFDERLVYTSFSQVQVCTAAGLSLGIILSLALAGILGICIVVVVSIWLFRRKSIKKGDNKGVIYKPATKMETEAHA

T1 sequence (P00915 whole entry): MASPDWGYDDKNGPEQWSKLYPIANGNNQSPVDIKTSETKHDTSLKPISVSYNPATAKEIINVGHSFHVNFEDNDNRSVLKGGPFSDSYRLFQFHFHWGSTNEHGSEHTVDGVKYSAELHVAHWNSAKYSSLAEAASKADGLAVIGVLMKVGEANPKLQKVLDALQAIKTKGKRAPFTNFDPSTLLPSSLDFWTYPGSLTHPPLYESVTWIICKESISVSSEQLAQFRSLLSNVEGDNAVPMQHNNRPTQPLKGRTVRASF

O=C(COc1ccc2oc(=O)ccc2c1)NNC(=S)Nc1ccccc1 [Compound 14a, N-Phenyl-2-(2-((2-oxo-2H-chromen-6-yl)oxy)acetyl)hydrazine-1-carbothioamide]
Ki [1]: > 10000 nM | Ki [2]: > 10000 nM | fold more potent on hCA IX than on hCA XII ([3]; Ki hCA XII / Ki hCA IX): 84 fold | Ki [3]: 8.8 nM | Ki [4]: 739 nM | melting point: 173 to 175 °C

O=C(COc1ccc2ccc(=O)oc2c1)NNC(=S)Nc1ccccc1 [Compound 14b, N-Phenyl-2-(2-((2-oxo-2H-chromen-7-yl)oxy)acetyl)hydrazine-1-carbothioamide]
Ki [1]: > 10000 nM | Ki [2]: > 10000 nM | fold loss of hCA IX inhibition potency relative to 14a [3]: 5.2 fold | Ki [3]: 46 nM | Ki [4]: 743 nM | melting point: 155 to 156 °C

Cc1ccc(NC(=S)NNC(=O)COc2ccc3oc(=O)ccc3c2)cc1 [Compound 15a, N-(p-Tolyl)-2-(2-((2-oxo-2H-chromen-6-yl)oxy)acetyl)hydrazine-1-carbothioamide]
Ki [1]: > 10000 nM | Ki [2]: > 10000 nM | fold loss of hCA IX inhibition potency relative to 14a [3]: 26.6 fold | Ki [3]: 234 nM | Ki [4]: 709 nM | melting point: 167 to 169 °C

Cc1ccc(NC(=S)NNC(=O)COc2ccc3ccc(=O)oc3c2)cc1 [Compound 15b, N-(p-Tolyl)-2-(2-((2-oxo-2H-chromen-7-yl)oxy)acetyl)hydrazine-1-carbothioamide]
Ki [1]: > 10000 nM | Ki [2]: > 10000 nM | fold increase of hCA IX Ki relative to 14b ([3]; Ki ratio versus 14b): 1.7 fold | Ki [3]: 78 nM | Ki [4]: 684 nM | melting point: 147 to 149 °C (dec.)

O=C(COc1ccc2oc(=O)ccc2c1)NNC(=S)Nc1ccc(Cl)cc1 [Compound 16a, N-(4-Chlorophenyl)-2-(2-((2-oxo-2H-chromen-6-yl)oxy)acetyl)hydrazine-1-carbothioamide]
Ki [1]: > 10000 nM | Ki [2]: > 10000 nM | Ki [3]: 48 nM | Ki [4]: 608 nM | melting point: 163 to 165 °C

O=C(COc1ccc2ccc(=O)oc2c1)NNC(=S)Nc1ccc(Cl)cc1 [Compound 16b, N-(4-Chlorophenyl)-2-(2-((2-oxo-2H-chromen-7-yl)oxy)acetyl)hydrazine-1-carbothioamide]
Ki [1]: > 10000 nM | Ki [2]: > 10000 nM | Ki [3]: 55 nM | Ki [4]: 866 nM | melting point: 202 to 203 °C

O=C(COc1ccc2oc(=O)ccc2c1)NNC(=S)Nc1ccc(F)cc1 [Compound 17a, N-(4-Fluorophenyl)-2-(2-((2-oxo-2H-chromen-6-yl)oxy)acetyl)hydrazine-1-carbothioamide]
Ki [1]: > 10000 nM | Ki [2]: > 10000 nM | Ki [3]: 39 nM | Ki [4]: 494 nM | melting point: 181 to 183 °C

O=C(COc1ccc2ccc(=O)oc2c1)NNC(=S)Nc1ccc(F)cc1 [Compound 17b, N-(4-Fluorophenyl)-2-(2-((2-oxo-2H-chromen-7-yl)oxy)acetyl)hydrazine-1-carbothioamide]
Ki [1]: > 10000 nM | Ki [2]: > 10000 nM | Ki [3]: 64 nM | Ki [4]: 745 nM | melting point: 119 to 121 °C (dec.)

O=C(COc1ccc2oc(=O)ccc2c1)NNC(=S)Nc1ccc(I)cc1 [Compound 18a, N-(4-Iodophenyl)-2-(2-((2-oxo-2H-chromen-6-yl)oxy)acetyl)hydrazine-1-carbothioamide]
Ki [1]: > 10000 nM | Ki [2]: > 10000 nM | Ki [3]: 9.6 nM | Ki [4]: 8.4 nM | melting point: 160 to 162 °C

O=C(COc1ccc2ccc(=O)oc2c1)NNC(=S)Nc1ccc(I)cc1 [Compound 18b, N-(4-Iodophenyl)-2-(2-((2-oxo-2H-chromen-7-yl)oxy)acetyl)hydrazine-1-carbothioamide]
Ki [1]: > 10000 nM | Ki [2]: > 10000 nM | Ki [3]: 721 nM | Ki [4]: 7.5 nM | melting point: 164 to 166 °C

O=C(COc1ccc2oc(=O)ccc2c1)NNC(=S)Nc1cccc(I)c1 [Compound 19a, N-(3-Iodophenyl)-2-(2-((2-oxo-2H-chromen-6-yl)oxy)acetyl)hydrazine-1-carbothioamide]
Ki [1]: > 10000 nM | Ki [2]: > 10000 nM | Ki [3]: 9.6 nM | Ki [4]: 79 nM | melting point: 144 to 146 °C

O=C(COc1ccc2ccc(=O)oc2c1)NNC(=S)Nc1cccc(I)c1 [Compound 19b, N-(3-Iodophenyl)-2-(2-((2-oxo-2H-chromen-7-yl)oxy)acetyl)hydrazine-1-carbothioamide]
Ki [1]: > 10000 nM | Ki [2]: > 10000 nM | Ki [3]: 9.4 nM | Ki [4]: 573 nM | melting point: 168 to 169 °C

O=C(COc1ccc2oc(=O)ccc2c1)NNC(=S)Nc1ccc(C(F)(F)F)cc1 [Compound 20a, N-(4-(Trifluoromethyl)phenyl)-2-(2-((2-oxo-2H-chromen-6-yl)oxy)acetyl)hydrazine-1-carbothioamide]
Ki [1]: > 10000 nM | Ki [2]: > 10000 nM | fold increase of hCA IX Ki relative to the 4-iodo derivative 18a [3]: 9.6 fold | Ki [3]: 92 nM | Ki [4]: 306 nM

O=C(COc1ccc2ccc(=O)oc2c1)NNC(=S)Nc1ccc(C(F)(F)F)cc1 [Compound 20b, N-(4-(Trifluoromethyl)phenyl)-2-(2-((2-oxo-2H-chromen-7-yl)oxy)acetyl)hydrazine-1-carbothioamide]
Ki [1]: > 10000 nM | Ki [2]: > 10000 nM | fold more potent on hCA IX than 6-substituted counterpart [3]: 1.3 fold | Ki [3]: 70 nM | Ki [4]: 56.6 nM | fold more effective on hCA XII than 6-substituted counterpart [4]: 5.4 fold

O=C(COc1ccc2oc(=O)ccc2c1)NNC(=S)Nc1cccc([N+](=O)[O-])c1 [Compound 21a, N-(3-Nitrophenyl)-2-(2-((2-oxo-2H-chromen-6-yl)oxy)acetyl)hydrazine-1-carbothioamide]
Ki [1]: > 10000 nM | Ki [2]: > 10000 nM | Ki [3]: 71 nM | Ki [4]: 328 nM | melting point: 210 to 212 °C

O=C(COc1ccc2ccc(=O)oc2c1)NNC(=S)Nc1cccc([N+](=O)[O-])c1 [Compound 21b, N-(3-Nitrophenyl)-2-(2-((2-oxo-2H-chromen-7-yl)oxy)acetyl)hydrazine-1-carbothioamide]
Ki [1]: > 10000 nM | Ki [2]: > 10000 nM | Ki [3]: 9.1 nM | Ki [4]: 8.6 nM | fold more effective on hCA XII than 6-substituted counterpart [4]: 38.2 fold | melting point: 214 to 215 °C

CSc1ccc(NC(=S)NNC(=O)COc2ccc3oc(=O)ccc3c2)cc1 [Compound 22a, N-(4-(Methylthio)phenyl)-2-(2-((2-oxo-2H-chromen-6-yl)oxy)acetyl)hydrazine-1-carbothioamide]
Ki [1]: > 10000 nM | Ki [2]: > 10000 nM | fold increase of hCA IX Ki relative to the 4-iodo derivative 18a [3]: 5.9 fold | Ki [3]: 57 nM | Ki [4]: 4 nM | fold less effective on hCA IX than on hCA XII ([4]; Ki hCA IX / Ki hCA XII): 14 fold | melting point: 148 to 150 °C

CSc1ccc(NC(=S)NNC(=O)COc2ccc3ccc(=O)oc3c2)cc1 [Compound 22b, N-(4-(Methylthio)phenyl)-2-(2-((2-oxo-2H-chromen-7-yl)oxy)acetyl)hydrazine-1-carbothioamide]
Ki [1]: > 10000 nM | Ki [2]: > 10000 nM | fold more potent on hCA IX than 6-substituted counterpart [3]: 1.7 fold | Ki [3]: 33 nM | Ki [4]: 4.6 nM | melting point: 163 to 164 °C

N#Cc1ccc(NC(=S)NNC(=O)COc2ccc3ccc(=O)oc3c2)cc1 [Compound 23b, N-(4-Cyanophenyl)-2-(2-((2-oxo-2H-chromen-7-yl)oxy)acetyl)hydrazine-1-carbothioamide]
Ki [1]: > 10000 nM | Ki [2]: > 10000 nM | Ki [3]: 437 nM | Ki [4]: 473 nM | melting point: 224 to 226 °C
